Experimental data from ChEMBL document CHEMBL5291721, “A preclinical secondary pharmacology resource illuminates target-adverse drug reaction associations of marketed drugs” (Nat Commun, 2023).

Assays:
Progesterone receptor = target: T1, Progesterone receptor (Homo sapiens, UniProt P06401)
T1 sequence (P06401 whole entry): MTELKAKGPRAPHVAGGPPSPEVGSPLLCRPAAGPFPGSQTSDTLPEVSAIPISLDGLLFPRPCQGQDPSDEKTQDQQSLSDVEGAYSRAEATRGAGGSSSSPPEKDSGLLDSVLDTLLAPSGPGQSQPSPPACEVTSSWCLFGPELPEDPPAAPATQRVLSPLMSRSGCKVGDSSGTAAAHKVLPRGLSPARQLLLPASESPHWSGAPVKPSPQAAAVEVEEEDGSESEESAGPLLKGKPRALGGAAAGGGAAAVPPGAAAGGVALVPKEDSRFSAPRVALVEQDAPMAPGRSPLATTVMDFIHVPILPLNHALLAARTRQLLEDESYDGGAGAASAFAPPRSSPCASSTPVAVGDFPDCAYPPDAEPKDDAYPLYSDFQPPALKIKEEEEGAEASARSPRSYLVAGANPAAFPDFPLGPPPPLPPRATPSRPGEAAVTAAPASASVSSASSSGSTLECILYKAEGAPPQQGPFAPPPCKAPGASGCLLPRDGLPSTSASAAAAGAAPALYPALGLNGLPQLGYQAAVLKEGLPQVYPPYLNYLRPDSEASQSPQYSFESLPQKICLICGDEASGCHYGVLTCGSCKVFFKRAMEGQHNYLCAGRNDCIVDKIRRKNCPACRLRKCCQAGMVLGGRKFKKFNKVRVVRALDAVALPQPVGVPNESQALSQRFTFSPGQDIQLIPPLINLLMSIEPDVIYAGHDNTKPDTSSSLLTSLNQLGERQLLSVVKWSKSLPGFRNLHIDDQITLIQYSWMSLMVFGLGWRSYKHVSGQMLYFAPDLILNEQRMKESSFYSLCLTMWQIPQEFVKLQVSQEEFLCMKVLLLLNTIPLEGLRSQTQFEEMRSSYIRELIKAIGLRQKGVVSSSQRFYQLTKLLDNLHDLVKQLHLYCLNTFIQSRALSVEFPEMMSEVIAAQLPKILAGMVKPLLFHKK

[1] = target: 3',5'-cyclic-AMP phosphodiesterase 4A (Homo sapiens, UniProt P27815); type: functional
Sequence of 3',5'-cyclic-AMP phosphodiesterase 4A (P27815 whole entry): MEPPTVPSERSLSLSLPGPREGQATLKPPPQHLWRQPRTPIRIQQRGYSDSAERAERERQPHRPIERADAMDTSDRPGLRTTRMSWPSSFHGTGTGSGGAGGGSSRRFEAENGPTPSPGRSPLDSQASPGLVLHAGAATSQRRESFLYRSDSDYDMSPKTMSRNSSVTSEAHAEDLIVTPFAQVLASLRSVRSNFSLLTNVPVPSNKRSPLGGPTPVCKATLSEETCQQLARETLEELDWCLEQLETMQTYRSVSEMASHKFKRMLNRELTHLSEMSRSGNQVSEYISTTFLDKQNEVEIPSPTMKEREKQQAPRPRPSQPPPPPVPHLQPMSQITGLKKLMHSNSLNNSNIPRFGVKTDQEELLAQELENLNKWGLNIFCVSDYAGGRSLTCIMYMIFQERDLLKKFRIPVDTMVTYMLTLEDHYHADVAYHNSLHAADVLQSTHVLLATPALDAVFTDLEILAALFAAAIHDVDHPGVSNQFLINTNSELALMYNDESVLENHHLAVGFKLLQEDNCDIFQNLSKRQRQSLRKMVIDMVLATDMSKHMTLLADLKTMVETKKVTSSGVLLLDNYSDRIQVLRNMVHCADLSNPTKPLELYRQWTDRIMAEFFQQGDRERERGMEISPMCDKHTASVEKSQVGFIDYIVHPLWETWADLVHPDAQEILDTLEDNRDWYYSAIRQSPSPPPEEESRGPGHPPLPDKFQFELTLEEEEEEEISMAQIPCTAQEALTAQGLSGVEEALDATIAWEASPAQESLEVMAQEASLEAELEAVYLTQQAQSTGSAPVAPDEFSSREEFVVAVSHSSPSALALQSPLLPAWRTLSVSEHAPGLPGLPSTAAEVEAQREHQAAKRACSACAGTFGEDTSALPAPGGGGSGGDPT

Adenosine receptor A3 = target: T2, Adenosine receptor A3 (Homo sapiens, UniProt P0DMS8)
T2 sequence (P0DMS8 whole entry): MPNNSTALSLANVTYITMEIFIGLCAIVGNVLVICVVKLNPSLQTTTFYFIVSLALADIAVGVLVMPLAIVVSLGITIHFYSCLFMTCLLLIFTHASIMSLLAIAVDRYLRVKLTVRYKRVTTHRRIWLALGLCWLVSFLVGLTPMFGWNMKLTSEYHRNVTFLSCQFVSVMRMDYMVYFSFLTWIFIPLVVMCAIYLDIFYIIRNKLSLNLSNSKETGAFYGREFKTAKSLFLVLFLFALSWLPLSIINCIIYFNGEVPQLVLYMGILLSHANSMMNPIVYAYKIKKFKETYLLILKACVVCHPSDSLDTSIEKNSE

[2] = target: T3, Alpha-2A adrenergic receptor (Homo sapiens, UniProt P08913)
T3 sequence (P08913 whole entry): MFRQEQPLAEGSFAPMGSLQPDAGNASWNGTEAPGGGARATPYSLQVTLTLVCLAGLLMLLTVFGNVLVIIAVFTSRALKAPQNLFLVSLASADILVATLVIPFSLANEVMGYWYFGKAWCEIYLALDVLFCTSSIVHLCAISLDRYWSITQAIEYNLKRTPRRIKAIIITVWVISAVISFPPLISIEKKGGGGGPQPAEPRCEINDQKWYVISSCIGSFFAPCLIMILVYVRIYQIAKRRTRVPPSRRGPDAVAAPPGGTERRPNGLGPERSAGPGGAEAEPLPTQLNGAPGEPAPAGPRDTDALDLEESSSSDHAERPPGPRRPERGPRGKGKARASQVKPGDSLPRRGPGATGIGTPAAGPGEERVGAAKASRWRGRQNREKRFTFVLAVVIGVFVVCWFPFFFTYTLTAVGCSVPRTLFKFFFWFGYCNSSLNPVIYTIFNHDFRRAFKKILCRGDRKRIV

Melanocortin receptor 3 = Melanocortin receptor 3 (Homo sapiens, UniProt P41968)
Sequence of Melanocortin receptor 3 (P41968 whole entry): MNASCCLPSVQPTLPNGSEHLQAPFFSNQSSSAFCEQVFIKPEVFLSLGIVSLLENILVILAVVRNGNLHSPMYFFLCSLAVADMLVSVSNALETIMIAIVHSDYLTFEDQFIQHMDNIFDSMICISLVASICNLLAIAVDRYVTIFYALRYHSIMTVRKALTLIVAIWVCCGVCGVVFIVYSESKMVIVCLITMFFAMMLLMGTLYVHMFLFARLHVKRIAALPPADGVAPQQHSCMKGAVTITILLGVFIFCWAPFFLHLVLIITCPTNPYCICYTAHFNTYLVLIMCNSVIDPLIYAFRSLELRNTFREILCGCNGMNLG

[3] = target: T4, Alpha-1A adrenergic receptor (Homo sapiens, UniProt P35348); type: functional, cell-based
T4 sequence (P35348 whole entry): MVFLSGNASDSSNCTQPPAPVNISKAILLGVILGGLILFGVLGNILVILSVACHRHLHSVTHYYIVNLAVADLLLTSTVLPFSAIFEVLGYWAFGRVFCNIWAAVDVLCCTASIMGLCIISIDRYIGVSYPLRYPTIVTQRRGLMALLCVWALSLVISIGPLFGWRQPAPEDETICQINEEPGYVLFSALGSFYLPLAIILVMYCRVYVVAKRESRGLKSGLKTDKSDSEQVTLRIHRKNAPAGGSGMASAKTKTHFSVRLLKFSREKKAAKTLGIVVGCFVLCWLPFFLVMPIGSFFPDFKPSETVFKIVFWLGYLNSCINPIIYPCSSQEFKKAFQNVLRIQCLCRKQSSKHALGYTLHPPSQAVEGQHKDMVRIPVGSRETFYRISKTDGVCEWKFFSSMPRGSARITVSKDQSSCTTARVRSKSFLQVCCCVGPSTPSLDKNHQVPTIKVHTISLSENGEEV

[4] = target: Neuronal acetylcholine receptor subunit alpha-4 (Homo sapiens, UniProt P43681)
Sequence of Neuronal acetylcholine receptor subunit alpha-4 (P43681 whole entry): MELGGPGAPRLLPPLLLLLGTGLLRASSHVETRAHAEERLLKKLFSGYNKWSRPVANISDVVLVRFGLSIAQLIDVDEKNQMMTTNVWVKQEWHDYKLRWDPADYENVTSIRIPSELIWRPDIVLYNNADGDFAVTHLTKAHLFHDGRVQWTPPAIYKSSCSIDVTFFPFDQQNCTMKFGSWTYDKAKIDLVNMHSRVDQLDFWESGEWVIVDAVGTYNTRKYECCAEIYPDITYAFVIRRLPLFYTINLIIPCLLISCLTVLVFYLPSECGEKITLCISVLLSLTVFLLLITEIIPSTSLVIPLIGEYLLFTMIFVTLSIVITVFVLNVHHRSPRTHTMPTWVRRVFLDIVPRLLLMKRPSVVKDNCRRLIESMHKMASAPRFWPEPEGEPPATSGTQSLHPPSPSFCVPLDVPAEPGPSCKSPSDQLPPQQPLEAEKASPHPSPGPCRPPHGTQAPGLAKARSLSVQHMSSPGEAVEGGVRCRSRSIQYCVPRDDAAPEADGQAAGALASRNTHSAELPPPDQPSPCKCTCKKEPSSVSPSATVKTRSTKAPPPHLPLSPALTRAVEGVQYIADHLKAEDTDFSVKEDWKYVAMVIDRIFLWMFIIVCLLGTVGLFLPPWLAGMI

Adenosine receptor A2a = Adenosine receptor A2a (Homo sapiens, UniProt P29274)
Sequence of Adenosine receptor A2a (P29274 whole entry): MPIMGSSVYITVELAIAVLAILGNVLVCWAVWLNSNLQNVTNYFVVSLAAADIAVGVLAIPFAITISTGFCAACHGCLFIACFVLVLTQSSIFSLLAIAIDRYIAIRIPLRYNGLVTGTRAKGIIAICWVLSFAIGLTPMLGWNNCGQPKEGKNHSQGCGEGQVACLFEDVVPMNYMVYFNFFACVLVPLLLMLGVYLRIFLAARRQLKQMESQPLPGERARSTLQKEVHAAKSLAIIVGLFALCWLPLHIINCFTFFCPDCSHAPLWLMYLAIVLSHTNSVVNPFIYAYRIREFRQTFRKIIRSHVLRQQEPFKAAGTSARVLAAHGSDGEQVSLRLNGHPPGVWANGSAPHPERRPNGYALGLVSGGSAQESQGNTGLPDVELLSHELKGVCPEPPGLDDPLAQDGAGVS

Motilin receptor = Motilin receptor (Homo sapiens, UniProt O43193)
Sequence of Motilin receptor (O43193 whole entry): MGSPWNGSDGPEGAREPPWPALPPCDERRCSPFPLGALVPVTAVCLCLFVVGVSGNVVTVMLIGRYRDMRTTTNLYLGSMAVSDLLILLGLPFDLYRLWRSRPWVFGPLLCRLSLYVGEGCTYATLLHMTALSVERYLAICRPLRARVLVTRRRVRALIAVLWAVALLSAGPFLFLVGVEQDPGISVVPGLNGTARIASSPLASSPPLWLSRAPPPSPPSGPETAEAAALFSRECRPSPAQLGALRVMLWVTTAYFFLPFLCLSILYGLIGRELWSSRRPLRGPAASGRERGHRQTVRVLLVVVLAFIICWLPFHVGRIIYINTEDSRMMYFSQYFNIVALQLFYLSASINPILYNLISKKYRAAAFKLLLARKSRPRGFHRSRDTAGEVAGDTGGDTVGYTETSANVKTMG

[5] = target: T5, Neuropeptide Y receptor type 1 (Homo sapiens, UniProt P25929); conditions: read-out: AC50
T5 sequence (P25929 whole entry): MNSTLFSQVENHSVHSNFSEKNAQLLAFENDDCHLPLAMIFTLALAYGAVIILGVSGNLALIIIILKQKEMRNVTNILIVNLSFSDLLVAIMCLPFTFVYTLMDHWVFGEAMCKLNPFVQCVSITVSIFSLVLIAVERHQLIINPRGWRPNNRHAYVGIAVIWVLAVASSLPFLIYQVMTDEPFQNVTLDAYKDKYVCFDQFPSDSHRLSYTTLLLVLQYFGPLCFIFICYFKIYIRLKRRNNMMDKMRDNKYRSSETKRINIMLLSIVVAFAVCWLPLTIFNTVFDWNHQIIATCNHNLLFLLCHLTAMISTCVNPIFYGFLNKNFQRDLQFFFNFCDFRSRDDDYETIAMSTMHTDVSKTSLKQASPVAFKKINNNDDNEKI

[6] = target: T4, Alpha-1A adrenergic receptor; type: functional, cell-based; remark: listed apart in the source
Note: assay procedure not described here.

Row | SMILES | AC50 (Progesterone receptor) | AC50 [1] | AC50 (Adenosine receptor A3) | AC50 [2] | AC50 (Melanocortin receptor 3) | AC50 [3] | AC50 [4] | AC50 (Adenosine receptor A2a) | AC50 (Motilin receptor) | AC50 [5] | AC50 [6]
1 | CC(CCc1ccccc1)NCC(O)c1ccc(O)c(C(N)=O)c1 (stereo not given) [LABETALOL] | > 30 µM | > 30 µM | > 30 µM |  |  |  |  |  |  |  | 
2 | CC[C@@]1(O)C(=O)OCc2c1cc1n(c2=O)Cc2cc3c([N+](=O)[O-])cccc3nc2-1 [RUBITECAN] | > 30 µM | > 30 µM |  | > 30 µM |  |  |  |  |  |  | 
3 | OC[C@H]1O[C@@](CO)(O[C@H]2O[C@H](CO)[C@@H](O)[C@H](O)[C@H]2O)[C@@H](O)[C@@H]1O [SUCROSE] | > 30 µM | > 30 µM |  | > 30 µM | > 30 µM | > 30 µM | > 30 µM | > 30 µM | > 30 µM | > 30 µM | 
4 | CN(C)[C@@H]1C(O)=C(C(N)=O)C(=O)[C@@]2(O)C(O)=C3C(=O)c4c(O)ccc(Cl)c4[C@@](C)(O)[C@H]3C[C@@H]12 [CHLORTETRACYCLINE] | > 30 µM |  | > 30 µM | > 30 µM |  |  |  |  |  |  | > 30 µM
5 | CCOC(=O)c1c(C)cc2c(CO)n[nH]c(=O)c2c1C [OXAGRELATE] | > 30 µM | > 30 µM |  | > 30 µM |  |  |  |  |  |  | 
6 | CC(=O)O[C@]1(C(C)=O)CC[C@H]2[C@@H]3C=C(C)C4=CC(=O)CC[C@@H]4[C@H]3CC[C@@]21C [NOMEGESTROL ACETATE] | 0.003 µM | > 30 µM |  | > 30 µM | > 30 µM | > 30 µM | > 30 µM | > 30 µM |  |  | > 10 µM
7 | OC[C@@H](O)[C@@H](O)[C@H](O)[C@@H](O)CO [SORBITOL] | > 30 µM | > 30 µM |  | > 30 µM |  |  |  |  |  |  | 
8 | CN1C(C(=O)Nc2ccccn2)=C(O)c2ccccc2S1(=O)=O [PIROXICAM] | > 30 µM | > 30 µM |  | > 30 µM | > 10 µM |  | > 10 µM | > 10 µM | > 10 µM | > 10 µM | 
9 | CN(CC1(C)CCCO1)S(=O)(=O)c1ccc(Cl)c(S(N)(=O)=O)c1 (stereo not given) [MEFRUSIDE] | > 30 µM | > 30 µM |  | > 30 µM |  | > 30 µM |  |  |  |  | 
10 | CCc1nc(C(N)=O)c(Nc2ccc(N3CCC(N4CCN(C)CC4)CC3)c(OC)c2)nc1NC1CCOCC1 [GILTERITINIB] | > 30 µM | 2.44 µM |  | > 30 µM |  |  |  |  |  |  | > 0.3 µM
11 | C#C[C@]1(O)CC[C@H]2[C@@H]3CCC4=CC(=O)CC[C@@H]4[C@H]3C(=C)C[C@@]21CC [ETONOGESTREL] | 0.003 µM | > 30 µM |  | > 30 µM |  | > 30 µM |  |  |  |  | 
12 | C[C@@H]1C[C@H]2[C@@H]3CCC4=CC(=O)C=C[C@]4(C)[C@@]3(Cl)[C@@H](O)C[C@]2(C)[C@@]1(OC(=O)c1ccco1)C(=O)CCl [MOMETASONE FUROATE] |  | > 30 µM | 1.64 µM | > 30 µM |  |  |  |  |  |  | > 10 µM
13 | O=C(O)CO [GLYCOLIC ACID] | > 30 µM | > 30 µM |  | > 30 µM |  |  |  |  |  |  | 
